Where two headings read alike, the source gives them in different places. Each block holds one molecule with its values, some of them ahead of it.
How the values were obtained:
[1] = molecular target: T1, FMS kinase (Homo sapiens, UniProt P07333); assay: Kinase HotSpot cell-free enzyme assay, FMS kinase; assay type: biochemical; details: single-dose concentration of 1 μM
T1 construct: purchased Reaction Biology Corp

[2] = molecular target: T2, ALK (Homo sapiens, UniProt Q9UM73); assay: Kinase HotSpot 40-kinase panel; assay type: biochemical; details: single-dose concentration of 1 μM
T2 construct: purchased Reaction Biology Corp. (Kinase HotSpot)
Method: (§1) Reaction Biology Corp. Kinase HotSpot^SM service [http://www.reactionbiology.com] was utilised for screening of the target compounds as per the protocol reported in the literature.
(§2) Compound 1r was tested against a panel of 40 kinases including FMS. […] Its inhibition percentages against FLT3 (D835Y) and c-MET kinases were 42% and 40%, respectively. So its IC50 values against both of them will be in micromolar scale. […] The inhibition percentages exerted by compound 1r against the other 37 tested kinases were less than 28%.

[3] = molecular target: T3, CDK2/cyclinE (Homo sapiens, UniProt P24941); assay: Kinase HotSpot 40-kinase panel; assay type: biochemical; details: single-dose concentration of 1 μM
T3 construct: purchased Reaction Biology Corp. (Kinase HotSpot)
Method: as §1, §2

[4] = molecular target: T4, PIM1 (Homo sapiens, UniProt P11309); assay: Kinase HotSpot 40-kinase panel; assay type: biochemical; details: single-dose concentration of 1 μM
T4 construct: purchased Reaction Biology Corp. (Kinase HotSpot)
Method: as §1, §2

[5] = molecular target: T5, PLK1 (Homo sapiens, UniProt P53350); assay: Kinase HotSpot 40-kinase panel; assay type: biochemical; details: single-dose concentration of 1 μM
T5 construct: purchased Reaction Biology Corp. (Kinase HotSpot)
Method: as §1, §2

[6] = molecular target: T6, SYK (Homo sapiens, UniProt P43405); assay: Kinase HotSpot 40-kinase panel; assay type: biochemical; details: single-dose concentration of 1 μM
T6 construct: purchased Reaction Biology Corp. (Kinase HotSpot)
Method: as §1, §2

[7] = molecular target: T7, EPHA1 (Homo sapiens, UniProt P21709); assay: Kinase HotSpot 40-kinase panel; assay type: biochemical; details: single-dose concentration of 1 μM
T7 construct: purchased Reaction Biology Corp. (Kinase HotSpot)
Method: as §1, §2

[8] = molecular target: T8, IKKβ (Homo sapiens, UniProt O14920); assay: Kinase HotSpot 40-kinase panel; assay type: biochemical; details: single-dose concentration of 1 μM
T8 construct: purchased Reaction Biology Corp. (Kinase HotSpot)
Method: as §1, §2

[9] = molecular target: T9, KDR (Homo sapiens, UniProt P35968); assay: Kinase HotSpot 40-kinase panel; assay type: biochemical; details: single-dose concentration of 1 μM
T9 construct: purchased Reaction Biology Corp. (Kinase HotSpot)
Method: as §1, §2

[10] = molecular target: T10, CaMKI (Homo sapiens, UniProt Q14012); assay: Kinase HotSpot 40-kinase panel; assay type: biochemical; details: single-dose concentration of 1 μM
T10 construct: purchased Reaction Biology Corp. (Kinase HotSpot)
Method: as §1, §2

[11] = molecular target: T11, BTK (Homo sapiens, UniProt Q06187); assay: Kinase HotSpot 40-kinase panel; assay type: biochemical; details: single-dose concentration of 1 μM
T11 construct: purchased Reaction Biology Corp. (Kinase HotSpot)
Method: as §1, §2

[12] = molecular target: T12, CDK5/p25 (Homo sapiens, UniProt Q00535); assay: Kinase HotSpot 40-kinase panel; assay type: biochemical; details: single-dose concentration of 1 μM
T12 construct: purchased Reaction Biology Corp. (Kinase HotSpot)
Method: as §1, §2

[13] = molecular target: T13, MLK1 (Homo sapiens, UniProt P80192); assay: Kinase HotSpot 40-kinase panel; assay type: biochemical; details: single-dose concentration of 1 μM
T13 construct: purchased Reaction Biology Corp. (Kinase HotSpot)
Method: as §1, §2

[14] = molecular target: T14, LCK (Homo sapiens, UniProt P06239); assay: Kinase HotSpot 40-kinase panel; assay type: biochemical; details: single-dose concentration of 1 μM
T14 construct: purchased Reaction Biology Corp. (Kinase HotSpot)
Method: as §1, §2

[15] = molecular target: T15, CHK1 (Homo sapiens, UniProt O14757); assay: Kinase HotSpot 40-kinase panel; assay type: biochemical; details: single-dose concentration of 1 μM
T15 construct: purchased Reaction Biology Corp. (Kinase HotSpot)
Method: as §1, §2

[16] = molecular target: T16, JNK1α1 (Homo sapiens, UniProt P45983); assay: Kinase HotSpot 40-kinase panel; assay type: biochemical; details: single-dose concentration of 1 μM
T16 construct: purchased Reaction Biology Corp. (Kinase HotSpot)
Method: as §1, §2

[17] = molecular target: T17, MEK1 (Homo sapiens, UniProt Q02750); assay: Kinase HotSpot 40-kinase panel; assay type: biochemical; details: single-dose concentration of 1 μM
T17 construct: purchased Reaction Biology Corp. (Kinase HotSpot)
Method: as §1, §2

[18] = molecular target: T18, mTOR (Homo sapiens, UniProt P42345); assay: Kinase HotSpot 40-kinase panel; assay type: biochemical; details: single-dose concentration of 1 μM
T18 construct: purchased Reaction Biology Corp. (Kinase HotSpot)
Method: as §1, §2

[19] = molecular target: T19, ABL1 (Homo sapiens, UniProt P00519); assay: Kinase HotSpot 40-kinase panel; assay type: biochemical; details: single-dose concentration of 1 μM
T19 construct: purchased Reaction Biology Corp. (Kinase HotSpot)
Method: as §1, §2

[20] = molecular target: T20, TEC (activated) (Homo sapiens, UniProt P42680); assay: Kinase HotSpot 40-kinase panel; assay type: biochemical; details: single-dose concentration of 1 μM
T20 construct: purchased Reaction Biology Corp. (Kinase HotSpot)
Method: as §1, §2

[21] = molecular target: T21, ROCK1 (Homo sapiens, UniProt Q13464); assay: Kinase HotSpot 40-kinase panel; assay type: biochemical; details: single-dose concentration of 1 μM
T21 construct: purchased Reaction Biology Corp. (Kinase HotSpot)
Method: as §1, §2

[22] = molecular target: T22, IGF-1R (Homo sapiens, UniProt P08069); assay: Kinase HotSpot 40-kinase panel; assay type: biochemical; details: single-dose concentration of 1 μM
T22 construct: purchased Reaction Biology Corp. (Kinase HotSpot)
Method: as §1, §2

[23] = molecular target: T23, PDK1 (Homo sapiens, UniProt O15530); assay: Kinase HotSpot 40-kinase panel; assay type: biochemical; details: single-dose concentration of 1 μM
T23 construct: purchased Reaction Biology Corp. (Kinase HotSpot)
Method: as §1, §2

[24] = molecular target: T24, ROS/ROS1 (Homo sapiens, UniProt P08922); assay: Kinase HotSpot 40-kinase panel; assay type: biochemical; details: single-dose concentration of 1 μM
T24 construct: purchased Reaction Biology Corp. (Kinase HotSpot)
Method: as §1, §2

[25] = molecular target: T25, Aurora A (Homo sapiens, UniProt O14965); assay: Kinase HotSpot 40-kinase panel; assay type: biochemical; details: single-dose concentration of 1 μM
T25 construct: purchased Reaction Biology Corp. (Kinase HotSpot)
Method: as §1, §2

[26] = molecular target: T26, EGFR (T790M) (Homo sapiens, UniProt P00533, T790M); assay: Kinase HotSpot 40-kinase panel; assay type: biochemical; details: single-dose concentration of 1 μM
T26 construct: purchased Reaction Biology Corp. (Kinase HotSpot)
Method: as §1, §2

[27] = molecular target: T27, DMPK (Homo sapiens, UniProt Q09013); assay: Kinase HotSpot 40-kinase panel; assay type: biochemical; details: single-dose concentration of 1 μM
T27 construct: purchased Reaction Biology Corp. (Kinase HotSpot)
Method: as §1, §2

[28] = molecular target: T28, c-SRC (Homo sapiens, UniProt P12931); assay: Kinase HotSpot 40-kinase panel; assay type: biochemical; details: single-dose concentration of 1 μM
T28 construct: purchased Reaction Biology Corp. (Kinase HotSpot)
Method: as §1, §2

[29] = molecular target: T29, FLT3 (D835Y) (Homo sapiens, UniProt P36888, D835Y); assay: Kinase HotSpot 40-kinase panel; assay type: biochemical; details: single-dose concentration of 1 μM
T29 construct: purchased Reaction Biology Corp. (Kinase HotSpot)
Method: as §1, §2

[30] = molecular target: T30, c-MET (Homo sapiens, UniProt P08581); assay: Kinase HotSpot 40-kinase panel; assay type: biochemical; details: single-dose concentration of 1 μM
T30 construct: purchased Reaction Biology Corp. (Kinase HotSpot)
Method: as §1, §2

[31] = molecular target: T31, P70S6K (Homo sapiens, UniProt P23443); assay: Kinase HotSpot 40-kinase panel; assay type: biochemical; details: single-dose concentration of 1 μM
T31 construct: purchased Reaction Biology Corp. (Kinase HotSpot)
Method: as §1, §2

[32] = tested on: HS 27 fibroblasts; assay: Antiproliferative screening against HS 27 fibroblasts; assay type: cell-based; details: HS-27 Fibroblasts (normal cells), concentration producing 50% inhibition
Method: It was conducted following the previously reported protocol.
Due to over-expression of FMS kinase in certain types of tumours such as ovarian, prostate, and breast[5–7] cancers, we decided to test the antiproliferative activity of compound 1r against a panel of six ovarian, two prostate, and five breast cancer cell lines. It was also tested against HS 27 fibroblasts in order to investigate the selectivity indexes. The results were compared with those of KIST101029 as a reference standard.

[33] = tested on: bone marrow-derived macrophages (BMDM); assay: BMDM assay, CSF-1-induced BMDM growth (Alamar Blue); assay type: cell-based, C57BL6 murine; details: 5 days, triplicate assay, mean ± SEM, 10-dose from 1 µM, read-out: IC50 against bone marrow-derived macrophages (BMDM)
Method: The macrophages were isolated from C57BL6 murine bone marrow using Miltenyi Biotec MACS beads (CD11b). The macrophages (30,000 cells/well) were cultured in RPMI 1640 medium containing 10% foetal bovine serum, 2-mercaptoethanol ([…]), and the test compound for 1 h at 37 °C in the presence of 5% CO2. CSF-1 (20 ng/mL) was then added and the system was incubated for 5 days. Each compound was tested in a 10-dose testing mode, threefold serial dilution starting with 1 µM concentration. The inhibitory effects of the tested compounds against CSF-1-induced BMDM growth were determined using Alamar Blue^TM (Serotec).
FMS over-expression contributes to inflammatory disorders as explained in the Introduction section. So compounds 1r and KIST101029 were tested for their ability to inhibit CSF-1-induced BMDM growth. […] So, the compound 1r can be a promising candidate for future development of anti-arthritic drugs.
Each compound was tested in a 10-dose testing mode, threefold serial dilution starting with 1 µM concentration.

T14 sequence (P06239 whole entry): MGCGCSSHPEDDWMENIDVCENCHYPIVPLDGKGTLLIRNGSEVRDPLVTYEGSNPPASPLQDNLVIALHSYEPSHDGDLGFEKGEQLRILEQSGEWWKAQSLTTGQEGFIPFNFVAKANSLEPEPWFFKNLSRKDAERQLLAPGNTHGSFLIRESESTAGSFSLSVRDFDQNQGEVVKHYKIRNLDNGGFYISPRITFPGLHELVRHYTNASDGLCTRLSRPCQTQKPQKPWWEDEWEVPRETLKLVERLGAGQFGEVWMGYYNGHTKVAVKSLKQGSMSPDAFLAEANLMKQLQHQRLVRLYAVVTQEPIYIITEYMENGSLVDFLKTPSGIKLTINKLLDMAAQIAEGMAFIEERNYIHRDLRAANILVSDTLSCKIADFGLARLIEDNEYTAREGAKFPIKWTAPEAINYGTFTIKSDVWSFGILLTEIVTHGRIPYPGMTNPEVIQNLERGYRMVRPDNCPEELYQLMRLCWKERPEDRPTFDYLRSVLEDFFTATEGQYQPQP
T7 sequence (P21709 26-976): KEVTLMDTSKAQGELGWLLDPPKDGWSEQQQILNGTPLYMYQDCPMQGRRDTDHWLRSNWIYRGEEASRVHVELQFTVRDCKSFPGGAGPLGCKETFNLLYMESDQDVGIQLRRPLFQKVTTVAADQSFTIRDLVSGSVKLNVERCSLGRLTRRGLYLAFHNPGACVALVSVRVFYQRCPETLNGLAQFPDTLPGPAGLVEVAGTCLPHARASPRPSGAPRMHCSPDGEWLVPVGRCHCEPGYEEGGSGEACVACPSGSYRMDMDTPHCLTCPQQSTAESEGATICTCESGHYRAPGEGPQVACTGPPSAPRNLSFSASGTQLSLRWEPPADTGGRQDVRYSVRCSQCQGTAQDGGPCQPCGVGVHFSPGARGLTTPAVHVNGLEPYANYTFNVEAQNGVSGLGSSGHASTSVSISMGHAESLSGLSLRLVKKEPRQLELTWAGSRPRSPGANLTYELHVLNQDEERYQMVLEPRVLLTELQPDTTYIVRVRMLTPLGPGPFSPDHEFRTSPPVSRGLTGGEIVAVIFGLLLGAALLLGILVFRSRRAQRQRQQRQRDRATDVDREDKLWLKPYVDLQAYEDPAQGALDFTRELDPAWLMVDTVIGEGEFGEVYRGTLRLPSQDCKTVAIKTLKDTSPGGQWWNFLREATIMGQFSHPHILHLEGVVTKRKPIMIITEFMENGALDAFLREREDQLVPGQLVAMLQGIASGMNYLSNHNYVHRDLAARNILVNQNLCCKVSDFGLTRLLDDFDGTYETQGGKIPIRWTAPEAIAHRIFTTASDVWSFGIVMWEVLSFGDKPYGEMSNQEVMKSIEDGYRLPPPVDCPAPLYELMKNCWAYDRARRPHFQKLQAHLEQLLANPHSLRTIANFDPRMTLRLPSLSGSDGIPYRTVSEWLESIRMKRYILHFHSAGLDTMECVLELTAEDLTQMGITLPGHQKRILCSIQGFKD
T8 sequence (O14920 whole entry): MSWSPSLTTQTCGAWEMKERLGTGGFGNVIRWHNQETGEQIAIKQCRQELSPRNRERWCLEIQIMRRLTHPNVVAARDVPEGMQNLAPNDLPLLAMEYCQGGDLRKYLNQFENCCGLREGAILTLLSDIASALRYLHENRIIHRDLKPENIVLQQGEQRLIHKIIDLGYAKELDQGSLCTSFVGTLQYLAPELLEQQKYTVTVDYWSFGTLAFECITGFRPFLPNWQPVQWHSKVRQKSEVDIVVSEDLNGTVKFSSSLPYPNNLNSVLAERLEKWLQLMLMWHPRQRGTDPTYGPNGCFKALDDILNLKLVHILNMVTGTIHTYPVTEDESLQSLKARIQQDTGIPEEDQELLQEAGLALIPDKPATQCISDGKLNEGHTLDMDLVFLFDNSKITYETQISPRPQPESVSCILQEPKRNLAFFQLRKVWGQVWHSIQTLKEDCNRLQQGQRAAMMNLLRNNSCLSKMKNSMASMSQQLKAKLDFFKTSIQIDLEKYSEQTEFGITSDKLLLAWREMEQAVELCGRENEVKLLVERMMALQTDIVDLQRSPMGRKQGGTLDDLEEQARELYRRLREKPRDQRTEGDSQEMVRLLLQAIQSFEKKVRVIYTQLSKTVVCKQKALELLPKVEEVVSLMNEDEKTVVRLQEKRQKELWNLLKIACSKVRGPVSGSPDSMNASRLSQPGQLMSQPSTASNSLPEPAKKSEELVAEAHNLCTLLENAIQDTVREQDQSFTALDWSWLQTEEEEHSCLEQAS
T10 sequence (Q14012 whole entry): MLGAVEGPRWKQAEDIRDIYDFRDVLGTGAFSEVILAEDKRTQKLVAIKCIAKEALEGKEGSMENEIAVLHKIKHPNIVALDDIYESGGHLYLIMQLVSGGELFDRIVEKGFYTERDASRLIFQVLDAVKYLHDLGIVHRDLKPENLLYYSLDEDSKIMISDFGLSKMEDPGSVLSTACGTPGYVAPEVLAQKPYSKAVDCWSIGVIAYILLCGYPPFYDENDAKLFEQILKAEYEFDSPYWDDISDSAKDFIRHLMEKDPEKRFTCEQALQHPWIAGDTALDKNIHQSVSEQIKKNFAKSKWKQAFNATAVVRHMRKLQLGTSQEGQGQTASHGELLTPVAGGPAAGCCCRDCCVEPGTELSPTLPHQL
T12 sequence (Q00535 whole entry): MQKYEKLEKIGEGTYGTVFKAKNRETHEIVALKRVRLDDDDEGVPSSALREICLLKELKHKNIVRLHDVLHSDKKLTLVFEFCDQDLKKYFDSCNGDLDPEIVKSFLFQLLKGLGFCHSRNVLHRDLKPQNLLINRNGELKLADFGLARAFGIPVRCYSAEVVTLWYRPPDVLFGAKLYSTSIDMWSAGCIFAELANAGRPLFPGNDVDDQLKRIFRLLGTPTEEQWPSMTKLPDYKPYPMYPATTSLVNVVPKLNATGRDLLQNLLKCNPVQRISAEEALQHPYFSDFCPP
T12 sequence (Q15078 99-307 partner limits assumed): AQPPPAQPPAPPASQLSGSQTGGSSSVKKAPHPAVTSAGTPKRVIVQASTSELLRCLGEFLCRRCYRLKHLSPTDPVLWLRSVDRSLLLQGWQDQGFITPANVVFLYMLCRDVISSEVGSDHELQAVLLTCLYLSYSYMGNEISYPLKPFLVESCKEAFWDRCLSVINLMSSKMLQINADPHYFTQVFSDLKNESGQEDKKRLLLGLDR
T26 sequence (P00533 25-1210 T790M): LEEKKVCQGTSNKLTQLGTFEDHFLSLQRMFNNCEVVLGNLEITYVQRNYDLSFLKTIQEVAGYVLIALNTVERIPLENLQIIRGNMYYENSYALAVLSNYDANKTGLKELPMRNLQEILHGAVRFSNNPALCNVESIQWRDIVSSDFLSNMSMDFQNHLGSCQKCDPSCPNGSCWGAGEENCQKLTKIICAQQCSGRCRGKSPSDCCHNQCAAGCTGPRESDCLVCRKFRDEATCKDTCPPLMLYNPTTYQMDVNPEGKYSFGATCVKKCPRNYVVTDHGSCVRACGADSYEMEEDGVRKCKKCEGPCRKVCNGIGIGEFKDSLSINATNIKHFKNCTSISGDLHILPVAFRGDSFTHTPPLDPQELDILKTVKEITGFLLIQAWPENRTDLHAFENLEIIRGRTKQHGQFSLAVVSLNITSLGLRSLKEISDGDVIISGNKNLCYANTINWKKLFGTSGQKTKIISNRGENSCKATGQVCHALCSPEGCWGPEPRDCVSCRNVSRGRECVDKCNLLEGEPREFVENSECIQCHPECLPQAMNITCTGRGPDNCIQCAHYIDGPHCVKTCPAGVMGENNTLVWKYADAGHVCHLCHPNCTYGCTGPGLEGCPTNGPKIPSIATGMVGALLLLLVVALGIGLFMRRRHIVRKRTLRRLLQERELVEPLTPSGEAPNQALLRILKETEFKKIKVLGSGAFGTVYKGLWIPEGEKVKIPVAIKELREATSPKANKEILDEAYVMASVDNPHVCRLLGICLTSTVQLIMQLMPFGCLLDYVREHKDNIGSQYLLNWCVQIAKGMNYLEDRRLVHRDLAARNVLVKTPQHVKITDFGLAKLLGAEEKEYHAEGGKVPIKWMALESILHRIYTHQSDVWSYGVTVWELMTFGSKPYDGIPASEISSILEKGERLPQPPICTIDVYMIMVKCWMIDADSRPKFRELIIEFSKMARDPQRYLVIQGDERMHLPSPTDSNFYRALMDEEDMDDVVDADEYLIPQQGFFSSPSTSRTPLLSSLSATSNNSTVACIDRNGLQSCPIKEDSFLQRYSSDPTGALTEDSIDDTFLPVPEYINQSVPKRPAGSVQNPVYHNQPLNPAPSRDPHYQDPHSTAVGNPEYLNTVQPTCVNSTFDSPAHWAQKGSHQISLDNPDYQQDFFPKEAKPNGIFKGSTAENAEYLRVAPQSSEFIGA
T4 sequence (P11309 whole entry): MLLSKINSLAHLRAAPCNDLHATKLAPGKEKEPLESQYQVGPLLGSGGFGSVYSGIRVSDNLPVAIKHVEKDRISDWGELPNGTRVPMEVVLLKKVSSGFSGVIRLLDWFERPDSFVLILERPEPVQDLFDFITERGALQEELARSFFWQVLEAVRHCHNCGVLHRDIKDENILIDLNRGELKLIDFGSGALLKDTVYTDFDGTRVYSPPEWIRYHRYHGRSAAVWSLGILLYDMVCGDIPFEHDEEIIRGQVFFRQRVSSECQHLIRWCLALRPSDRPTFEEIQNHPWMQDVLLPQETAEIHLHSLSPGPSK
T17 sequence (Q02750 whole entry): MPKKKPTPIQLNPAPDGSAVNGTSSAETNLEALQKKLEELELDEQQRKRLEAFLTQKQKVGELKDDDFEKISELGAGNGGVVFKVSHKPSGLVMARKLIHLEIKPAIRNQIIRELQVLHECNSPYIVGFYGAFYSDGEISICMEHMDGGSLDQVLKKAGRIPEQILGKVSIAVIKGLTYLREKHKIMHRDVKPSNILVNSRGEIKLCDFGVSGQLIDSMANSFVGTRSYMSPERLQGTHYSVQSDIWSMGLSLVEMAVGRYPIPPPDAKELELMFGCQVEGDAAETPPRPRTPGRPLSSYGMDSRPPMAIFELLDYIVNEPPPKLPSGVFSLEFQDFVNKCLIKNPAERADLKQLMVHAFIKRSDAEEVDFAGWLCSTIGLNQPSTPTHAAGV

% Inhibition [1]: 81% | % Inhibition [2]: 0% | % Inhibition [3]: −1% | % Inhibition [4]: −6% | % Inhibition [5]: 7% | % Inhibition [6]: −5% | % Inhibition [7]: −10% | % Inhibition [8]: 1% | % Inhibition [9]: 1% | % Inhibition [10]: −23% | % Inhibition [11]: 1% | % Inhibition [12]: −5% | % Inhibition [13]: −4% | % Inhibition [14]: −7% | % Inhibition [15]: −6% | % Inhibition [16]: −5% | % Inhibition [17]: −7% | % Inhibition [18]: −2% | % Inhibition [19]: 15% | % Inhibition [20]: 10% | % Inhibition [21]: 2% | % Inhibition [22]: 4% | % Inhibition [23]: −7% | % Inhibition [24]: −4% | % Inhibition [25]: −2% | % Inhibition [26]: 4% | % Inhibition [27]: −1% | % Inhibition [28]: −4% | % Inhibition [29]: 42% | % Inhibition [30]: 40% | % Inhibition [31]: −8%
Structure (SMILES): Nc1nccc2c1ccn2-c1cccc(NC(=O)c2ccc(N3CCOCC3)c(C(F)(F)F)c2)c1 [Compound 1r]
IC50 [32]: 5720 nM | IC50 [33]: 84 ± 3 nM

inhibition at 1 µM [1]: 90% | inhibition at 1 µM [2]: 11% | inhibition at 1 µM [3]: -12% | inhibition at 1 µM [4]: 10% | inhibition at 1 µM [5]: 4% | inhibition at 1 µM [6]: 6% | inhibition at 1 µM [7]: 9% | inhibition at 1 µM [8]: 23% | inhibition at 1 µM [9]: 71% | inhibition at 1 µM [10]: -1% | inhibition at 1 µM [11]: 7% | inhibition at 1 µM [12]: 8% | inhibition at 1 µM [13]: -1% | inhibition at 1 µM [14]: 33% | inhibition at 1 µM [15]: -8% | inhibition at 1 µM [16]: -1% | inhibition at 1 µM [17]: 12% | inhibition at 1 µM [18]: -10% | inhibition at 1 µM [19]: 41% | inhibition at 1 µM [20]: 14% | inhibition at 1 µM [21]: 3% | inhibition at 1 µM [22]: 10% | inhibition at 1 µM [23]: -1% | inhibition at 1 µM [24]: 19% | inhibition at 1 µM [25]: 21% | inhibition at 1 µM [26]: 1% | inhibition at 1 µM [27]: -18% | inhibition at 1 µM [28]: 10% | inhibition at 1 µM [29]: 16% | inhibition at 1 µM [30]: -16% | inhibition at 1 µM [31]: 7%
Structure (SMILES): O=C(Nc1cccc(-n2ccc3c(NC(=O)c4ccccc4)nccc32)c1)c1ccc(N2CCOCC2)c(C(F)(F)F)c1 [KIST101029, reference compound]
IC50 ([32]; Homo sapiens, HS27): 300 nM | IC50 ([33]; Mus musculus, 120 h): 195 ± 6 nM
